“Also recorded” adds a separate entry of the source. Where a SMILES comes first, the peptide text is derived from it. The star is where a group is joined. Cbz = O=C(OCc1ccccc1)*
Assays:
[1] = system: HT-29 cells; assay: Cell survival and readhesion assay (crystal violet); assay type: cell-based, human; settings: HT-29 (overexpress PPARγ); 30 μM GW 9662
Source text: (§1) Untreated adherent monolayers (Control) and Jurkat cells treated with TNFα (Jurkat Control) served as controls. The cells were collected and analyzed for NF-κB activation in an ELISA (see Methods). […] The floating and readherent cells were collected and lysed. Aliquots of the cell lysates were used to generate cleaved PARP immunoblots. All lanes contain equal total protein concentrations and the actin blot served as a loading control. The blots shown are typical of duplicate experiments. […] The floating cells were washed away and the adherent cells were then fixed and stained with crystal violet. The cells were lysed in deoxycholate and the intensity of the staining quantified by spectrophotometry. The results are normalized to the controls.
(§2) FIGS. 13A-B show transiently suspended Su.86 (PPARγ-negative) and HT-29 (PPARγ-positive) cancer cells were allowed to readhere in the presence of various concentrations of ciglitazone for 8 hours. The cells were also incubated with or without the irreversible PPARγ inhibitor GW9662 during readhesion. The floating cells were washed away and the adherent cells were then fixed and stained with crystal violet. The cells were lysed in deoxycholate and the intensity of the staining quantified by spectrophotometry. The results are normalized to the controls. […]

[2] = system: Su.86 cells; assay: as above; assay type: cell-based, human; settings: Su.86 (lack PPARγ); 30 μM GW 9662
Source text: as §1, §2

[3] = system: colon and pancreatic cancer cells; assay: Apoptosis of colon and pancreatic cancer cells during readhesion; assay type: cell-based, human
[4] = system: adherent HT-29 cells; assay: Annexin V-FITC apoptosis assay, adherent cells; assay type: cell-based, human; settings: adherent HT-29; 24 hours; BAY compounds at doses up to 20, MG-132 20 μM
Source text: FIG. 3 is a group of graphs that show NF-κB inhibitors cause apoptosis of colon cancer cells. […] The data points represent the average percent of annexin V-positive, propidium iodide-negative cells (of the total cells counted) from triplicate experiments. The error bars represent the standard error of the means. […] The results shown are a graphic representation of individual flow cytometry results expressed as the percentage of cells that were annexin V-positive of those that excluded propidium iodide. […] An immunoblot of the lysates for cleaved PARP was performed. Each lane represents equal total protein concentrations. […] The cells were allowed to adhere to plastic dishes for 1 hour after which they were washed gently in PBS and stained with crystal violet. The crystal violet stained cells were solubilized in deoxycholate and the absorbance detected in a spectrophotometer at 590 nm. The adherent cells were expressed as a fraction of the controls. Each data point represents the average of triplicate experiments and the error bars the standard errors of the means.
The data points represent the means of triplicate experiments and the error bars the standard errors of the means. […] The percent of apoptotic cells was then determined by the annexin V assay. […] The results shown are typical of two separate experiments. […] Immunoblots were performed for c-IAP-2, TRAF-1, TRAF-2, and FLIP. All lanes contain equal total protein.
(§3) Single cell suspensions were plated at 100,000 cells per well in 24-well plates in media containing DMSO, BAY 11-7082, BAY 11-7085, or MG-132 for 8-24 hours in an incubator. Alternatively, DMSO, BAY 11-7082, BAY 11-7085, or MG-132 were added to cells that were confluent and adherent for several days. The nonadherent cells were aspirated off with the media and spun for 3 minutes at 2,000 rpm in 15 mL polypropylene tubes. The adherent cells were washed twice with PBS, dispersed in trypsin, and spun down for 3 minutes at 2,000 rpm in 15 mL polypropylene tubes. The nonadherent and adherent cells were resuspended in 1× binding buffer (10 mM HEPES/NaOH, pH 7.4, 140 mM NaCl, and 2.5 mM CaCl2) to a final concentration of 10^6 cells/mL. 100 μL of the cell solution were transferred to a 5 mL culture tube and incubated with 5 μL of annexin V-FITC-conjugated monoclonal antibody (Pharmingen) and 10 μl, of propidium iodide (from a 50 μg/mL stock solution made in PBS) in the dark at 25° C. for 15 minutes. 400 μL of binding buffer was added to each tube and the cells were analyzed by flow cytometry immediately. The percent of apoptosis was determined as the percent of annexin V-positive, propidium iodide-negative cells of the total cells counted.

[5] = system: transiently suspended HT-29 cells; assay: Apoptosis of transiently suspended cells during readhesion (annexin V assay); assay type: cell-based, human; settings: various concentrations, 4 hours; compared with BAY 11-7085
Procedure: HT-29 cells that were either transiently suspended with trypsin-EDTA or adherent for three days, were treated at time zero with DMSO or 10-100 μM BAY 11-7085. The percent of apoptotic cells was determined using the annexin V flow cytometry assay and graphed versus the dose of BAY 11-7085. FIG. 4B are photographs showing DLD-1, FIG. 4C are photographs showing HCT-116, and FIG. 4D are photographs showing HT-29 cells that were transiently suspended in trypsin-EDTA and allowed to readhere to glass coverslips for 1-24 hours. The cells were fixed and immunostained with an NF-κB p65 subunit monoclonal antibody.
The transiently suspended cells were lysed and allowed to bind to DNA oligonucleotides, containing the NF-κB consensus binding site, that were immobilized to 96-well plates. NF-κB protein bound to the oligonucleotides was detected by an antibody to the p65 subunit that only recognized p65 that is bound to DNA. The positive control was HeLa cells that were stimulated with TNFα. A control was performed using excess free NF-κB oligonucleotides (Competitor). […] NF-κB binding activity was determined by the TransAM assay as in FIG. 5A. […] The data shown represent typical results of three separate experiments. […] An immunoblot for COX-2 was performed.
The percentage of apoptotic cells was determined using the annexin V assay. The data points represent the averages of three experiments; bars, +−.SE. E. DLD-1 and F. HT-29 cells were transduced with an adenovirus containing the IκB super-repressor construct. After 3 days, the cells were transiently suspended and allowed to readhere in the presence of subapoptotic concentrations of BAY 11-7085 or DMSO (vehicle) for 8 hours. The data are expressed as fractions of cells surviving compared with the controls (no adenovirus) and were quantitatively determined by staining the remaining adherent cells with crystal violet.
as §3
Various concentrations of BAY 11-7085 were added to HT-29 cells that were transiently suspended in trypsin-PBS for approximately 15 minutes before replating. The transiently suspended cells were quickly allowed to readhere in order to prevent anoikis. Alternatively, BAY 11-7085 was added to adherent HT-29 cell monolayers.

[6] = system: HT-29 cells; assay: Cleaved PARP immunoblot of adherent and nonadherent cells; assay type: cell-based, human; settings: 20 μM MG-132 for 8 h
Procedure: The cells were washed twice in ice cold PBS and then lysed in 4° C. lysis buffer (50 mM HEPES, 150 mM NaCl, 1.5 mM MgCl2, 1 mM EGTA, 100 mM NaF, 10 mM Na2PO4, 1 mM Na3VO4, 10% glycerol, 1% TRITON™ X-100, and 1 μg/mL each of aprotinin, leupeptin, chymostatin, pepstatin) and clarified at 12,000 rpm at 4° C. for 15 minutes. The lysates were normalized for total protein concentration. Aliquots of the lysates were then mixed 1:1 in sample buffer (125 mM Tris-HCl (pH 6.8), 20% glycerol, 4% sodium dodecyl sulfate, 2% β-mercaptoethanol, 10 μg/mL bromophenol blue) and boiled for 3 minutes. The samples were loaded onto SDS-PAGE gels (7.5 or 10% acrylamide). The proteins were transferred to nitrocellulose from the gels and incubated in blocking buffer (1% bovine serum albumin (Bio-Rad), 100 mM Tris-Cl (pH 7.4), 0.9% NaCl, 0.1% Nonidet) overnight at 4° C.
(§4) For immunodetection, the blocked blots were probed with primary antibody for 2 hours at 4° C. on a rocker. […] Alkaline phosphatase was detected by a colorimetric reaction using a BCIP (5-bromo-4-chloro-3-indolyl phosphate)/NBT (nitroblue tetrazolium) kit (Zymed).
It was confirmed in HT-29 cells that were treated with increasing concentrations of BAY 11-7085 for 24 h. After separating the HT-29 cells that remained adherent and those that became nonadherent after BAY 11-7085 treatment, the percentage of apoptotic cells was determined for each group. […]

[7] = system: HCT-116 cells; assay: Cleaved PARP immunoblot of adherent and non-adherent cells; assay type: cell-based, human; settings: 20 μM MG-132 for 24 hours
Source text: FIG. 3 is a group of graphs that show NF-κB inhibitors cause apoptosis of colon cancer cells. […] The data points represent the average percent of annexin V-positive, propidium iodide-negative cells (of the total cells counted) from triplicate experiments. The error bars represent the standard error of the means. […] The results shown are a graphic representation of individual flow cytometry results expressed as the percentage of cells that were annexin V-positive of those that excluded propidium iodide. […] An immunoblot of the lysates for cleaved PARP was performed. Each lane represents equal total protein concentrations. […] The cells were allowed to adhere to plastic dishes for 1 hour after which they were washed gently in PBS and stained with crystal violet. The crystal violet stained cells were solubilized in deoxycholate and the absorbance detected in a spectrophotometer at 590 nm. The adherent cells were expressed as a fraction of the controls. Each data point represents the average of triplicate experiments and the error bars the standard errors of the means. […]
as §4

[8] = system: FLIP; assay: FLIP expression in pancreatic and colon cancer cell lines; assay type: cell-based, human; settings: anisomycin 1.5 and 4 hours
Procedure: In order to determine the role of JNK activity in FLIP downregulation, pancreatic and colon cancer cell lines were treated with anisomycin for 1.5 and 4 hours.

[9] = system: JNK; assay: JNK activity (phosphorylation of c-JUN) in colon and pancreatic cancer cell lines; assay type: cell-based, human
[10] = humans; after a single or multiple oral doses; read-out: Cmax blood levels; cited from earlier work
[11] = system: RANK; assay: NF-κB activation in colon cancer cell lines incubated with soluble RANK; assay type: cell-based, human
Source text: Of other members of the TNF receptor superfamily, Receptor Activator of NF-κB (RANK) is highly expressed in the digestive tract. […] Thus, RANK appears to be important in the activation of NF-κB during colon cancer cell readhesion.

Molecule: O=C(Nc1ccccc1)c1cc([N+](=O)[O-])ccc1Cl [GW9662]
- effect of GW 9662 on the efficacy of ciglitazone [1]: did not significantly affect the efficacy of ciglitazone
- effect of GW 9662 on the efficacy of ciglitazone [2]: did not significantly affect the efficacy of ciglitazone
- effect of GW9662 on the pro-apoptotic activity of pioglitazone ([3]; cancer cell readhesion): failed to inhibit the pro-apoptotic activity of pioglitazone

Molecule: CC(C)C[C@@H](C=O)NC(=O)[C@H](CC(C)C)NC(=O)[C@H](CC(C)C)NC(=O)OCc1ccccc1 [MG-132, N-[(phenylmethoxy)carbonyl]-leucyl-N-[(1S)-1-formyl-3-methylbutyl]-L-leucinamide] (Cbz-Leu-Leu-Leu-aldehyde)
- level of apoptosis (annexin V-positive, propidium iodide-negative cells) [4]: relatively greater for MG-132 than BAY 11-7085; also recorded: caused a greater increase in apoptosis
- induction of apoptosis of HT-29 cells during readhesion [5]: more potently induced apoptosis
- cleaved PARP in cells that remained adherent [6]: only a small increase in cleaved PARP
- cleaved PARP in nonadherent cells [6]: large increase in cleaved PARP
- cleaved PARP in cells that remained adherent [7]: only a small increase in cleaved PARP
- cleaved PARP in non-adherent cells [7]: large increase in cleaved PARP

Molecule: COc1ccc(C[C@H]2NC[C@H](O)[C@H]2OC(C)=O)cc1 [anisomycin]
- FLIP expression [8]: caused a decrease in FLIP expression
- apoptosis during cell readhesion ([3]; colon and pancreatic cancer cell lines, anisomycin alone): not as effective as BAY 11-7085, anisomycin induced apoptosis
- effect on pro-apoptotic activity of BAY 11-7085 ([3]; readhering colon and pancreatic cancer cells, anisomycin with BAY 11-7085): increased the pro-apoptotic activity of BAY 11-7085
- JNK activity (phosphorylation of c-JUN) [9]: readily induced JNK activity

Molecule: CCc1ccc(CCOc2ccc(CC3SC(=O)NC3=O)cc2)nc1 (stereo not drawn) [pioglitazone]
- Cmax [10]: 2500 nM

B1: soluble RANK: soluble Receptor Activator of NF-κB, inhibits ligand-dependent RANK activation (protein, UniProt Q9Y6Q6 30-212, looked up)
extracellular domain: IAPPCTSEKHYEHLGRCCNKCEPGKYMSSKCTTTSDSVCLPCGPDEYLDSWNEEDKCLLHKVCDTGKALVAVVAGNSTTPRRCACTAGYHWSQDCECCRRNTECAPGLGAQHPLQLNKDTVCKPCLAGYFSDAFSSTDKCRPWTNCTFLGKRVEHHGTEKSDAVCSSSLPARKPPNEPHVYLP
modifications: extracellular domain
- activation of NF-κB [11]: significantly reduced the activation of NF-κB

Reference: US20110251135A1, “INHIBITORS OF PERITONEAL SEEDING OF CANCER CELLS” (University of Utah Research Foundation, priority 2008, published 2011)
